# “Also recorded” adds a separate entry of the source. Like-named read-outs stand apart in the source and are kept apart here.
# Assays:
# [1] = tested on: Spontaneously hypertensive male rats; assay: Experiment 1-1 Hypotensive activity (oral, conscious spontaneously hypertensive rats); assay type: in vivo, rat; details: for Maximum hypotension: mean blood pressure; for hypotensive activity (in words): Table 4, comparison with nifedipine and nicardipine hydrochloride where stated
# [2] = tested on: Spontaneously hypertensive male rats; assay: Experiment 1-2 Hypotensive activity (oral, 8 hours); assay type: in vivo, rat; details: for hypotensive activity (in words): Table 5, comparison with nifedipine and nicardipine hydrochloride where stated
# Experimental: Spontaneously hypertensive male rats (13-15 week age, one group: 3 rats) were used. […] The rats were fixed in a Howlman cage without fasting, and the femoral arterial pressure was measured by a direct method without anesthesia with a cannula which was previously inserted into the femoral artery of the animal, via a pressure transducer (MPU-0.5, manufactured by Nippon Koden K.K.). The test compounds were orally administered in the form of a suspension in 0.5% methyl cellulose solution in a dose of 10 mg/kg (in some compounds, 3 mg/kg). In the control group, only 0.5% methyl cellulose solution was administered likewise. The blood pressure was measured for 5 hours after the administration of test compounds.
# The hypotensive activity was measured in the same manner as described in Experiment 1-1 except that the rats were used in 3-5 rats per each group, and the test compounds were administered in a dose of 1 mg/kg (some compounds, 3 mg/kg), and the blood pressure was measured for 8 hours after the administration of test compounds.
# [3] = tested on: isolated heart; assay: Experiment 2-1 Activity on isolated heart; parameters: species or system Japanese white rabbit; details: for activation at 3 µg/heart / inhibition at 3 µg/heart, 3 µg/heart / inhibition at 3 µg/heart: Oryctolagus cuniculus, 3 μg/heart; for activation at 3 µg/heart: read-out: Increase of coronary perfusion; for inhibition at 3 µg/heart, 3 µg/heart: read-out: Inhibitory rate of systole; for inhibition at 3 µg/heart: read-out: Reducing rate of heart pulse
# Experimental: Japanese white rabbit (weighing 2.2-2.5 kg) was anesthetized by introvenous injection of nembutal (20 mg/kg) and then sacrificed by bleeding from common carotid artery. […] After stabilizing the heart preparation for 90 minutes, the test compound was administered. There were measured the perfusion volume with a drop-counting meter (ET-600G type, manufactured by Nippon Koden K.K.) and the heart pulse and the contractility via a force-displacement transducer (FD pick up, SB-IT type, manufactured by Nippon Koden K.K.) (for measuring heart pulse, an instant pulse meter (AT-601G type, minufactured by Nippon Koden K.K.) being further used).
# [4] = tested on: isolated heart; assay: Experiment 2-2 Activity onto the isolated heart (with duration); parameters: species or system Japanese white rabbit; details: for Coronary perfusion Duration: time until perfusion volume returned to initial level; for activation at 3 µg/heart / inhibition at 3 µg/heart / activation at 1 µg/heart / inhibition at 1 µg/heart: Oryctolagus cuniculus; for activation at 3 µg/heart / activation at 1 µg/heart: read-out: Coronary perfusion Increase
# Experimental: Japanese white rabbit (weighing 2.2-2.5 kg) was anesthetized by introvenous injection of nembutal (20 mg/kg) and then sacrificed by bleeding from common carotid artery. […] There were measured the perfusion volume with a drop-counting meter (ET-600G type, manufactured by Nippon Koden K.K.) and the heart pulse and the contractility via a force-displacement transducer (FD pick up, SB-IT type, manufactured by Nippon Koden K.K.) (for measuring heart pulse, an instant pulse meter (AT-601G type, minufactured by Nippon Koden K.K.) being further used).
# The test compounds were dissolved in ethanol, and the solution was diluted in 100-fold with purified water, and the diluted solution was administered in an amount of 0.1 ml/heart (i.e. 3 μg/heart).
# The activity was measured in the same manner as described in Experiment 2-1 except that in some test compounds, the dose was in 1 μg/heart. Besides, the duration of the activity was evaluated by counting the time until the coronary perfusion volume became to the initial level before the administration of the test compound.
# [5] = tested on: isolated aorta; assay: Experiment 3 Relaxing activity on the isolated aorta (30 mM KCl contracted); parameters: species or system Japanese white rabbit; details: for EC50: Oryctolagus cuniculus, read-out: EC50 (concentration for 50% relaxation); for relaxing / vasodilating activity on isolated aorta (in words): Table 8, comparison with nifedipine and nicardipine hydrochloride, etc. where stated
# Experimental: Japanese white rabbit (weighing 2.3-2.7 kg) was sacrificed by bleeding from common carotid artery. Immediately, the aorta was isolated and cut into a sprial strip. The strip preparation was vertically suspended under a resting tension of 2.0 g in a tissue bath containing 20 ml of modified Ringer solution while bubbling with a mixture of 95% O2 +5% CO2 by connecting one end of the strip to a lever of the above-mentioned FD pick up. The aortic strip was contracted with 30 mM KCl. When the contraction became constant, the test compound was accumulatively administered, and the relaxing effect was measured. After the final treatment, 10^-4T M papaverine was administered and the maximum relaxation obtained thereby was taken as 100%. In comparison with the maximum relaxation obtained by papaverine, the rate of relaxation by the test compounds was evaluated, and the concentration of the test compounds for obtaining 50% relaxation (EC50) was calculated.
# The test compound was dissolved in ethanol, and the solution was diluted in 100 to 1×10^4 folds with a nutrient solution, and the diluted solution was administered.
# [6] = Experiment 4-1 Acute toxicity; details: rat, in vivo; oral, male rats, 5 week age, 7 days
# Source text: Wistar male rats (5 week age, weighing 105-135 g) were used. The compounds of Example Nos. 2, 3 and 7 were each orally administered to the animals in the form of a suspension in 0.5% methyl cellulose solution.
# [7] = Experiment 4-2 Acute toxicity, rats; details: rat, in vivo, po, 4 week age, 7 days
# Source text: Wistar male and female rats (4 week age) and ddy male and female mice (4 week age) were used. The compounds of Example Nos. 82 and 83 were each orally administered to […].
# [8] = 3 μg/heart, read-out: Inhibitory rate of systole
# [9] = 3 μg/heart, read-out: Reducing rate of heart pulse
# [10] = 30 mM KCl contraction, maximum relaxation by papaverine = 100%
# [11] = 1 μg/heart, read-out: Inhibitory rate of systole
# [12] = 1 μg/heart, read-out: Reducing rate of heart pulse
Structure (SMILES),Recovering time ([1]; 10 mg/kg oral) [h],Time for recovering 1/2 of max. hypotension ([1]; 10 mg/kg oral) [h],Time until reaching to max. hypotension ([1]; 10 mg/kg oral) [min],Maximum hypotension ([1]; 10 mg/kg oral) [mmHg],Maximum hypotension ([2]; 1 mg/kg oral) [mmHg],Recovering time ([2]; 1 mg/kg oral) [h],Time for recovering 1/2 of max. hypotension ([2]; 1 mg/kg oral) [h],Time until reaching to max. hypotension ([2]; 1 mg/kg oral) [min],activation at 3 µg/heart [3] [%],"inhibition at 3 µg/heart, 3 µg/heart [3] [%]",inhibition at 3 µg/heart [3] [%],Coronary perfusion Duration ([4]; 3 μg/heart) [min],"EC50 [5, 10] [nM]",relaxing / vasodilating activity on isolated aorta (in words) [5],LD50 at 168 h [6] [mg/kg],hypotensive activity (in words) [2],further results
"COC(=O)C1=C(C)NC(C)=C(C(=O)OC)C1c1ccccc1[N+](=O)[O-] [Compound A, dimethyl 1,4-dihydro-2,6-dimethyl-4-(2-nitophenyl)3,5-pyridinedicarboxylate, reference compound]",4.0,1.5,15,49,55,3.0 to 4.0,2.0,30,40,35,10,< 10,–,–,–,–,"activation at 3 µg/heart ([4]; 3 μg/heart): 40%; inhibition at 3 µg/heart [4, 8]: 35%; inhibition at 3 µg/heart [4, 9]: 10%; EC50 [5]: 41 nM"
"COC(=O)C1=C(C)NC(C)=C(C(=O)OCCN(C)Cc2ccccc2)C1c1cccc([N+](=O)[O-])c1.Cl (centres unmarked) [Compound B, methyl, N-benzyl-N-methylaminoethyl 1,4-dihydro-2,6-dimethyl-4-(3-nitrophenyl)-3,5-pyridinedicarboxylate hydrochloride, reference compound]",> 5.0,> 5.0,15,57,–,–,–,–,15,10,5,< 10,19,–,–,–,"Maximum hypotension ([2]; 3 mg/kg oral): 27 mmHg; Recovering time ([2]; 3 mg/kg oral): 3.0 to 4.0 h; Time for recovering 1/2 of max. hypotension ([2]; 3 mg/kg oral): 2.0 h; Time until reaching to max. hypotension ([2]; 3 mg/kg oral): 30 min; activation at 3 µg/heart ([4]; 3 μg/heart): 15%; inhibition at 3 µg/heart [4, 8]: 10%; inhibition at 3 µg/heart [4, 9]: 5%"
"CCCCCCCCOC(=O)C1=C(C)NC(C)=C(C(=O)NC(C)C)C1c1ccccc1[N+](=O)[O-] (centres unmarked) [Example 2, n-octyl 2,6-dimethyl-3-isopropylaminocarbonyl-4-(o-nitrophenyl)-1,4-dihydropyridine-5-carboxylate]",–,–,–,–,–,–,–,–,17,50,25,–,300,somewhat weak vasodilating activity,10 to 100,–,Recovering time ([1]; 3 mg/kg oral): > 5.0 h; Time for recovering 1/2 of max. hypotension ([1]; 3 mg/kg oral): 5.0 h; Time until reaching to max. hypotension ([1]; 3 mg/kg oral): 30 min; Maximum hypotension ([1]; 3 mg/kg oral): 55 mmHg; hypotensive activity (in words) [1]: the same or more potent activity with longer duration; also recorded: potent hypotensive activity; inhibitions on the heart pulse and contactility (in words) ([3]; Table 6): moderate inhibitions on the heart pulse and contactility
"CCCCCCCCCOC(=O)C1=C(C)NC(C)=C(C(=O)NC(C)C)C1c1ccccc1[N+](=O)[O-] (centres unmarked) [Example 3, n-nonyl 2,6-dimethyl-3-isopropylaminocarbonyl-4-(o-nitrophenyl)-1,4-dihydropyridine-5-carboxylate]",> 5.0,> 5.0,30,91,–,–,–,–,40,55,20,–,180,–,500 to 1000,–,Recovering time ([1]; 3 mg/kg oral): > 5.0 h; Time for recovering 1/2 of max. hypotension ([1]; 3 mg/kg oral): > 5.0 h; Time until reaching to max. hypotension ([1]; 3 mg/kg oral): 30 min; Maximum hypotension ([1]; 3 mg/kg oral): 60 mmHg
"CCCCCCOC(=O)C1=C(C)NC(C)=C(C(=O)NC(C)C)C1c1ccccc1[N+](=O)[O-] (centres unmarked) [Example 7, n-hexyl 2,6-dimethyl-3-isopropylaminocarbonyl-4-(o-nitrophenyl)-1,4-dihydropyridine-5-carboxylate]",> 5.0,5.0,30,45,–,–,–,–,45,30,25,–,130,somewhat weak vasodilating activity,> 1000,–,"hypotensive activity (in words) [1]: the same or more potent activity with longer duration; also recorded: potent hypotensive activity; inhibitions on the heart pulse and contactility (in words) ([3]; Table 6): moderate inhibitions on the heart pulse and contactility; coronary vasodilating activity (in words) ([3]; Table 6, comparison with nifedipine and nicardipine hydrochloride, etc.): the same or more potent coronary vasodilating activity with longer duration"
"C#CCNC(=O)C1=C(C)NC(C)=C(C(=O)OCCCCCCCC)C1c1ccccc1[N+](=O)[O-] (centres unmarked) [Example 78, n-octyl 2,6-dimethyl-3-propargylaminocarbonyl-4-(o-nitrophenyl)-1,4-dihydropyridine-5-carboxylate]",–,–,–,–,33,5.0,3.0,60,–,–,–,–,–,–,–,the same or more potent hypotensive activity with longer duration,"Coronary perfusion Duration ([4]; 1 μg/heart): 60 min; activation at 1 µg/heart ([4]; 1 μg/heart): 55%; inhibition at 1 µg/heart [4, 11]: 35%; inhibition at 1 µg/heart [4, 12]: 10%"
"C#CCNC(=O)C1=C(C)NC(C)=C(C(=O)OCCCCCCCCC)C1c1ccccc1[N+](=O)[O-] (centres unmarked) [Example 79, n-nonyl 2,6-dimethyl-3-propargylaminocarbonyl-4-(o-nitrophenyl)-1,4-dihydropyridine-5-carboxylate]",–,–,–,–,45,5.0,3.0,60,–,–,–,–,–,–,–,the same or more potent hypotensive activity with longer duration,"Coronary perfusion Duration ([4]; 1 μg/heart): 60 min; activation at 1 µg/heart ([4]; 1 μg/heart): 50%; inhibition at 1 µg/heart [4, 11]: 40%; inhibition at 1 µg/heart [4, 12]: 30%"
"CCCCCCCCCOC(=O)C1=C(C)NC(C)=C(C(=O)NC2CC2)C1c1ccccc1[N+](=O)[O-] (centres unmarked) [Example 83, n-nonyl 2,6-dimethyl-3-cyclopropylaminocarbonyl-4-(o-nitrophenyl)-1,4-dihydropyridine-5-carboxylate]",–,–,–,–,61,> 8.0,> 8.0,180,–,–,–,> 120,–,somewhat weak vasodilating activity,–,the same or more potent hypotensive activity with longer duration; also recorded: potent hypotensive activity,activation at 3 µg/heart [4]: 42%; inhibition at 3 µg/heart ([4]; read-out: Inhibitory rate of systole): 50%; inhibition at 3 µg/heart ([4]; read-out: Reducing rate of heart pulse): 20%; EC50 [5]: 290 nM; LD50 at 168 h ([7]; female rats): ≤ 10 mg/kg; LD50 at 168 h ([7]; male rats): 100 to 500 mg/kg
